For one experiment, the target named is T1, glucagon receptor (GCGR) (Homo sapiens, UniProt P47871).
T1 construct: expressed in transfected cells; host or cells: CHO-K1 cells overexpressing GCGR (membrane fractions)
As to the kind of experiment: I125-glucagon binding assay (competition, GCGR membrane fractions). Summed up: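 Competition of 0.0625 nM (final) I^125-glucagon for 30 min at 25° C, after 5 min compound preincubation, using 7.5 μg/well GCGR-overexpressing CHO-K1 membranes in 50 mM Tris pH 7.4, 0.5% BSA. Filtration onto PEI-coated GF/B, micro-beta counting, and non-linear regression gave IC50.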

Experiment [1] deals with T2, glucagon receptor (GCGR) overexpressed CHO-K1 cells or human primary hepatocytes (Homo sapiens, UniProt P47871).
T2 construct: expressed in transfected cells; host or cells: GCGR overexpressed CHO-K1 cells or human primary hepatocytes (endogenous receptor)
T2 sequence (P47871 26-477): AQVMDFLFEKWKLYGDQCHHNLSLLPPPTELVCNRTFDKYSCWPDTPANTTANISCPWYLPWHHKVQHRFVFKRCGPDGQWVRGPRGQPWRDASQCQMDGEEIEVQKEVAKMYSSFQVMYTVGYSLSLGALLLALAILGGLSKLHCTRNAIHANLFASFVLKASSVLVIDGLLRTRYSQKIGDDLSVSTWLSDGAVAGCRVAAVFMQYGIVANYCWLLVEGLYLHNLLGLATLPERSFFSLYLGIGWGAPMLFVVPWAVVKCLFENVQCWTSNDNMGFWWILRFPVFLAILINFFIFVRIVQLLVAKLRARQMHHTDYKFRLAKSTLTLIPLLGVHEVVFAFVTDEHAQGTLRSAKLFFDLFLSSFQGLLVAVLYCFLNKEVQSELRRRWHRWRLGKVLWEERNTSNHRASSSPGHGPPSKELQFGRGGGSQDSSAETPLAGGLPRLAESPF
As to the kind of experiment: Glucagon cAMP inhibition assay (Cisbio cAMP Dynamic 2 HTRF). In kind it is cell-based. The gist of the method: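 HTRF read-out of glucagon-induced cAMP, with IC50 from non-linear regression. Cells (GCGR CHO-K1 or human primary hepatocytes) in HBSS/0.1% BSA/800 nM IBMX took compound dilutions for 30 min (final DMSO 1%), then EC50-level glucagon for 30 min at room temperature, then a 60 min lysis/detection step.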
In general terms: In TR-FRET formats the signal depends on donor and acceptor labels being close together.

The mark [2] stands for this setting: competition with I125-glucagon 0.0625 nM, membrane fractions of GCGR overexpressed CHO-K1 cells.
The mark [3] stands for this setting: inhibition of glucagon (EC50 concentration) induced cAMP production.

Read-outs that look alike come from different tables or passages of the source. Where only a bound is given, the exact number is not on record here.

T1 sequence (P47871 26-477): as above

What is called IC50 is the concentration needed to halve the response being measured. A low value points to higher potency. `CC[C@H](C)[C@@H](COc1ccc(-c2nnc(C(C)(C)C)o2)cc1)Nc1ccc(C(=O)NCCC(=O)O)cn1` [Compound 4-4, 3-(6-(((2S,3S)-1-(4-(5-(tert-butyl)-1,3,4-oxadiazol-2-yl)phenoxy)-3-methylpentan-2-yl)amino)nicotinamido)propanoic Acid]: the IC50 at glucagon receptor (GCGR) (setting [2]) is 2.39 µM. Also, the “IC50 cAMP” value in experiment [1] (setting [3]) was >30 µM.

`COc1cc(OC[C@@H](Nc2ccc(C(=O)NCCC(=O)O)cc2)C(C)C)ccc1-c1ccc(C(F)(F)F)cc1F` [Compound 13-8, (S)-3-(4-((1-((2′-fluoro-2-methoxy-4′-(trifluoromethyl)-[1,1′-biphenyl]-4-yl)oxy)-3-methylbutan-2-yl)amino)benzamido)propanoic Acid]: the half-inhibitory concentration (IC50) on glucagon receptor (GCGR) (setting [2]) amounted to 0.079 µM. Also, the “IC50 cAMP” value in experiment [1] (setting [3]) was found to be 0.0778 µM.

Consider `CC(C)[C@@H](COc1ccc(-c2nc3ccccc3s2)c(F)c1)Nc1ccc(C(=O)NCCC(=O)O)cc1` [Compound 8-25, (S)-3-(4-((1-(4-(benzo[d]thiazol-2-yl)-3-fluorophenoxy)-3-methylbutan-2-yl)amino)benzamido)propanoic Acid], for which the IC50 on glucagon receptor (GCGR) (setting [2]) came to 0.095 µM. For the same compound, the “IC50 cAMP” value in experiment [1] (setting [3]) was 0.653 µM.

`O=C(O)CCNC(=O)c1ccc(N[C@@H](Cc2ccccc2)C(=O)Nc2ccc(C(F)(F)F)cc2)cc1` [Compound 24-6, (S)-3-(4-((1-oxo-3-phenyl-1-((4-(trifluoromethyl)phenyl)amino)propan-2-yl)amino)benzamido)propanoic Acid] yielded an IC50 on glucagon receptor (GCGR) of 7.4 µM. Moreover, in experiment [1] (uM), the “IC50 cAMP” value was >10 µM.

Turning to `CCOC(=O)CCNC(=O)c1ccc(N[C@@H](Cc2ccccc2)C(=O)Nc2ccc(C(F)(F)F)cc2)cc1` [Compound 24-5, Ethyl (S)-3-(4-((1-oxo-3-phenyl-1-((4-(trifluoromethyl)phenyl)amino)propan-2-yl)amino)benzamido)propanoate], at glucagon receptor (GCGR) (uM), the IC50 is > 10 µM. Moreover, the “IC50 cAMP” value in experiment [1] is 5.8 µM.

On to `CCOC(=O)CCNC(=O)c1ccc(N[C@H](Cc2ccc(-c3cc4ccccc4o3)cc2)C(=O)Nc2cc(F)cc(F)c2)cc1` [Compound 24-23, Ethyl (R)-3-(4-((3-(4-(benzofuran-2-yl)phenyl)-1-((3,5-difluorophenyl)amino)-1-oxopropan-2-yl)amino)benzamido)propanoate], for which the IC50 on glucagon receptor (GCGR) amounted to 0.168 µM. In addition, the “IC50 cAMP” value in experiment [1] was 9.529 µM.

On glucagon receptor (GCGR), `CC(C)COC[C@H](Cc1ccc(-c2cccc(C(F)(F)F)c2)cc1)Nc1ccc(C(=O)NCCC(=O)O)cc1` [Compound 19-28, (S)-3-(4-((1-isobutoxy-3-(3′-(trifluoromethyl)-[1,1′-biphenyl]-4-yl)propan-2-yl)amino)benzamido)propanoic Acid] showed a concentration for half-maximal inhibition (IC50) of 0.872 µM. The “IC50 cAMP” value in experiment [1] is 0.726 µM.

`CCCC[C@@H](COc1ccc(-c2ccc(C(F)(F)F)cc2Cl)nc1)Nc1ccc(C(=O)NCCC(=O)O)cc1` [Compound 10-11, (S)-3-(4-((1-((6-(2-chloro-4-(trifluoromethyl)phenyl)pyridin-3-yl)oxy)hexan-2-yl)amino)benzamido)propanoic Acid] returned an IC50 at glucagon receptor (GCGR) (setting [2]) of 0.27 µM. Further, the “IC50 cAMP” value in experiment [1] (setting [3]) worked out at 0.5374 µM.

Consider `CC(C)(C)c1nnc(-c2ccc(OC[C@@H](Nc3ccc(C(=O)NCCC(=O)O)cc3)c3ccc(-c4ccc(C(F)(F)F)cc4F)cc3)nc2)o1` [Compound 15-32, (S)-3-(4-((2-((5-(5-(tert-butyl)-1,3,4-oxadiazol-2-yl)pyridin-2-yl)oxy)-1-(2′-fluoro-4′-(trifluoromethyl)-[1,1′-biphenyl]-4-yl)ethyl)amino)benzamido)propanoic Acid], for which, on glucagon receptor (GCGR), the IC50 amounted to 0.151 µM. Moreover, the “IC50 cAMP” value in experiment [1] came to 0.809 µM.

Compound `CCCC[C@@H](COc1ccc(-c2ccc(Cl)cc2Cl)c(Cl)c1)Nc1ccc(C(=O)NCCC(=O)O)cc1` [Compound 3-12, (S)-3-(4-((1-((2,2′,4′-trichloro-[1,1′-biphenyl]-4-yl)oxy)hexan-2-yl)amino)benzamido)propanoic Acid] displayed an IC50 at glucagon receptor (GCGR) (setting [2]) of 0.03 µM. For the same compound, the “IC50 cAMP” value in experiment [1] (setting [3]) amounted to 0.0281 µM.

(Values after US11384060B2, “Amide compounds and use thereof” (ALPHALA CO., LTD., priority 2017, dated 2022).)
